Laboratory results: ChEMBL document CHEMBL5649169 (ChemMedChem, 2018)

Columns and labels:
[1] = molecular target: GPI-anchor transamidase component PIGS (Homo sapiens) (UniProt Q96S52); further: assay method not described here
[2] = molecular target: Derlin-1 (Homo sapiens) (UniProt Q9BUN8); further: assay method not described here
[3] = molecular target: Tyrosine-protein kinase BTK (Homo sapiens) (UniProt Q06187); further: assay method not described here
[4] = molecular target: Protein RRP5 homolog (Homo sapiens) (UniProt Q14690); further: assay method not described here
[5] = molecular target: Coatomer subunit gamma-1 (Homo sapiens) (UniProt Q9Y678); further: assay method not described here
Chain of Coatomer subunit gamma-1 (Homo sapiens) (Q9Y678 whole entry): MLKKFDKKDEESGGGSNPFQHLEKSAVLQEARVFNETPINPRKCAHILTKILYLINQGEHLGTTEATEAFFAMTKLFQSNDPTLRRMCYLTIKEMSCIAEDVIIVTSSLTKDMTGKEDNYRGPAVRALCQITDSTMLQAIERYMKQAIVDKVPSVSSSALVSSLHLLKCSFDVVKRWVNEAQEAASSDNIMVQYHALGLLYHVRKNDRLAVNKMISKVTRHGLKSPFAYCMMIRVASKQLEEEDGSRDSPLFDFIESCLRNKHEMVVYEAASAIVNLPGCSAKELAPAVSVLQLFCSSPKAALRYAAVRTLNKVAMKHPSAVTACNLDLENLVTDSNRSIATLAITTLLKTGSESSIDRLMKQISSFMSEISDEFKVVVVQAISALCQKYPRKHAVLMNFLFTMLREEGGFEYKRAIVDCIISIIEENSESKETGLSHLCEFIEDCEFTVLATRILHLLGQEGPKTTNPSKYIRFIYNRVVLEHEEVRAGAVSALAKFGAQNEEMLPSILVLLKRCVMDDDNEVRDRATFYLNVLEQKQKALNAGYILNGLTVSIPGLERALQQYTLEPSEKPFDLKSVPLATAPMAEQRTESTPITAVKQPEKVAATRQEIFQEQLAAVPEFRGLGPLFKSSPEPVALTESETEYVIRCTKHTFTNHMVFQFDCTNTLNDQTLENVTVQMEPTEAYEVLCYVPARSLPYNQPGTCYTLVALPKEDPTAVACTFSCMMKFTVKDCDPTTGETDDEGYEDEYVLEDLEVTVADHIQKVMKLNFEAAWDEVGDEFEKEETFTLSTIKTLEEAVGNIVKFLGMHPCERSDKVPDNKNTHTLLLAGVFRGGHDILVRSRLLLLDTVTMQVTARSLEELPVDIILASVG

[6] = molecular target: DNA replication licensing factor MCM6 (Homo sapiens) (UniProt Q14566); further: assay method not described here
[7] = molecular target: Antigen peptide transporter 2 (Homo sapiens) (UniProt Q03519); further: assay method not described here
[8] = molecular target: Histone H1.10 (Homo sapiens) (UniProt Q92522); further: assay method not described here
[9] = molecular target: Large ribosomal subunit protein uL6 (Homo sapiens) (UniProt P32969); further: assay method not described here
[10] = molecular target: Protein kinase C alpha type (Homo sapiens) (UniProt P17252); further: assay method not described here
[11] = molecular target: Ethanolaminephosphotransferase 1 (Homo sapiens) (UniProt Q9C0D9); further: assay method not described here
[12] = molecular target: Neuronal migration protein doublecortin (Homo sapiens) (UniProt O43602); further: assay method not described here
[13] = molecular target: Ephrin type-B receptor 3 (Homo sapiens) (UniProt P54753); further: assay method not described here
[14] = species: Homo sapiens; further: assay method not described here
[15] = molecular target: Double-stranded RNA-specific adenosine deaminase (Homo sapiens) (UniProt P55265); further: assay method not described here
[16] = molecular target: Poly [ADP-ribose] polymerase 1 (Homo sapiens) (UniProt P09874); further: assay method not described here
[17] = molecular target: Cerebellar degeneration-related protein 2 (Homo sapiens) (UniProt Q01850); further: assay method not described here
[18] = molecular target: Nucleolysin TIAR (Homo sapiens) (UniProt Q01085); further: assay method not described here
[19] = molecular target: Eukaryotic translation initiation factor 3 subunit L (Homo sapiens) (UniProt Q9Y262); further: assay method not described here
Chain of Eukaryotic translation initiation factor 3 subunit L (Homo sapiens) (Q9Y262 whole entry): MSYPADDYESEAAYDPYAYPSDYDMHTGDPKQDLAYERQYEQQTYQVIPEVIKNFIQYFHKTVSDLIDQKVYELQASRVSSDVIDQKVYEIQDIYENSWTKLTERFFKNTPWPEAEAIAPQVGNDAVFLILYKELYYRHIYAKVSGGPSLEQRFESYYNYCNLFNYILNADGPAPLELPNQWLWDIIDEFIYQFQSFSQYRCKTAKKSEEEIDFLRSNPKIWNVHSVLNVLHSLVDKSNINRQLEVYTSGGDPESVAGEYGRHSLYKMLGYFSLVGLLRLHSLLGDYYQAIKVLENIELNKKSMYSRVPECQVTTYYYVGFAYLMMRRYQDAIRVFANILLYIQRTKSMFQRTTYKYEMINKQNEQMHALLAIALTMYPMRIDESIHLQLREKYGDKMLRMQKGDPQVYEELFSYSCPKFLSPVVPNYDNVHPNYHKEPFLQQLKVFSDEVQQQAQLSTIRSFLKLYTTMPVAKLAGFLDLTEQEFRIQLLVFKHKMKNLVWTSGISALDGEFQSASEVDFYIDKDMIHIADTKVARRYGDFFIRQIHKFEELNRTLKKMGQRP

[20] = molecular target: CCR4-NOT transcription complex subunit 1 (Homo sapiens) (UniProt A5YKK6); further: assay method not described here
[21] = molecular target: Ataxin-2-like protein (Homo sapiens) (UniProt Q8WWM7); further: assay method not described here
Chain of Ataxin-2-like protein (Homo sapiens) (Q8WWM7 whole entry, canonical isoform): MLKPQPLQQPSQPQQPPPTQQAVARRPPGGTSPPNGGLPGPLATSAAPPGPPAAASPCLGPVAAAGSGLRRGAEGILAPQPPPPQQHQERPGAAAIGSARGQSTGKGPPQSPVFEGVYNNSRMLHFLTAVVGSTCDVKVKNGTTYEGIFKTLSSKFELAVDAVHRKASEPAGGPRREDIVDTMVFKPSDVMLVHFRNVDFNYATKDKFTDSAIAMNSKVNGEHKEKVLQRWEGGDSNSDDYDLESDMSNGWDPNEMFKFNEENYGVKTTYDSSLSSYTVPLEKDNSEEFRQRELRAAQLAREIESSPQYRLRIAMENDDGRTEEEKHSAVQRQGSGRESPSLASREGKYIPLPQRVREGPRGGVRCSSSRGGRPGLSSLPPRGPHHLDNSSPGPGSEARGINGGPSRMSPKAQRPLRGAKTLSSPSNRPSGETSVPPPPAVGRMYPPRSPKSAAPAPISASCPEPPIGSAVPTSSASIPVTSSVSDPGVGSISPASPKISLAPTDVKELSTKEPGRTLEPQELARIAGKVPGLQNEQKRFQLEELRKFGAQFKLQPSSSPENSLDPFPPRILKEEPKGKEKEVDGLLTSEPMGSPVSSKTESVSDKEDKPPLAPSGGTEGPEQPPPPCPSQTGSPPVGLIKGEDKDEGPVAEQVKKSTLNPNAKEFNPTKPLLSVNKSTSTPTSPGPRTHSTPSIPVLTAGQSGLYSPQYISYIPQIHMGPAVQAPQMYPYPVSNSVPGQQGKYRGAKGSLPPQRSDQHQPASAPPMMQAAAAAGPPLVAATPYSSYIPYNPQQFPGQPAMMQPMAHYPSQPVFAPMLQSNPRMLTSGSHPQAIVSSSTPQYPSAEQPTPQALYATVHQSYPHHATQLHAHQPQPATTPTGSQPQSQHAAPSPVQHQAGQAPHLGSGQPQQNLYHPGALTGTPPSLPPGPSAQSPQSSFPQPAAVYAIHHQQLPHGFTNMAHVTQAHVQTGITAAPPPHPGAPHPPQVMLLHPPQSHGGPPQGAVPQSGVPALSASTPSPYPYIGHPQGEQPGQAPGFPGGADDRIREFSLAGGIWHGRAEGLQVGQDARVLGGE

[22] = molecular target: Small ribosomal subunit protein eS4, X isoform (Homo sapiens) (UniProt P62701); further: assay method not described here
[23] = molecular target: Eukaryotic translation initiation factor 4H (Homo sapiens) (UniProt Q15056); further: assay method not described here
[24] = molecular target: Casein kinase II subunit beta (Homo sapiens) (UniProt P67870); further: assay method not described here
[25] = molecular target: Proteasomal ubiquitin receptor ADRM1 (Homo sapiens) (UniProt Q16186); further: assay method not described here
[26] = molecular target: Histone H1.4 (Homo sapiens) (UniProt P10412); further: assay method not described here
[27] = molecular target: Ephrin type-A receptor 4 (Homo sapiens, UniProt P54764); assay: Inhibition of Nano Luc-fused full length C-terminal EPHA4 (unknown origin) expressed in HEK293T cells using NanoGlo as substrate incubated for 2 hrs in presence of tracer by NanoBRET assay; assay type: cell-based
[28] = molecular target: 14-3-3 protein gamma (Homo sapiens) (UniProt P61981); further: assay method not described here
[29] = molecular target: Microtubule-associated protein RP/EB family member 2 (Homo sapiens) (UniProt Q15555); further: assay method not described here
[30] = molecular target: Tyrosine-protein kinase HCK (Homo sapiens) (UniProt P08631); further: assay method not described here
[31] = molecular target: 5'-AMP-activated protein kinase catalytic subunit alpha-1 (Homo sapiens) (UniProt Q13131); further: assay method not described here
Chain of 5'-AMP-activated protein kinase catalytic subunit alpha-1 (Homo sapiens) (Q13131 whole entry, looked up): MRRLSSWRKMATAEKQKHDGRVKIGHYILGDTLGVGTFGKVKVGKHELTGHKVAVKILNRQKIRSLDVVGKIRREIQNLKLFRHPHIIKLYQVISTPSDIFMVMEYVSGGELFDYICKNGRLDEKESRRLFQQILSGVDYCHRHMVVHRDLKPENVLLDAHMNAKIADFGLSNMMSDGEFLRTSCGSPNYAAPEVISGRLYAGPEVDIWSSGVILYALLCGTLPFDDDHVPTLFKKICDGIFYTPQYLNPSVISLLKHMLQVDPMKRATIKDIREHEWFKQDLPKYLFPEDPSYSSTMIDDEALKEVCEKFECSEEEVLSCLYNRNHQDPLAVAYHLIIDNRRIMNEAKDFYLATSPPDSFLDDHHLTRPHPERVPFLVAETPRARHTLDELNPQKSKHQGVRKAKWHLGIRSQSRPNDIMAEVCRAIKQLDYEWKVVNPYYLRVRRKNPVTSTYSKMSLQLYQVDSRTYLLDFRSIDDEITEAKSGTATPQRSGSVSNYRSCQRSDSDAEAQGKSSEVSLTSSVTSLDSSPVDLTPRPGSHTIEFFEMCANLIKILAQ

[32] = molecular target: Tyrosine-protein kinase Fer (Homo sapiens) (UniProt P16591); further: assay method not described here
[33] = molecular target: X-ray repair cross-complementing protein 6 (Homo sapiens) (UniProt P12956); further: assay method not described here
[34] = molecular target: Dual specificity protein kinase CLK2 (Homo sapiens) (UniProt P49760); further: assay method not described here
Chain of Dual specificity protein kinase CLK2 (Homo sapiens) (P49760 whole entry, looked up): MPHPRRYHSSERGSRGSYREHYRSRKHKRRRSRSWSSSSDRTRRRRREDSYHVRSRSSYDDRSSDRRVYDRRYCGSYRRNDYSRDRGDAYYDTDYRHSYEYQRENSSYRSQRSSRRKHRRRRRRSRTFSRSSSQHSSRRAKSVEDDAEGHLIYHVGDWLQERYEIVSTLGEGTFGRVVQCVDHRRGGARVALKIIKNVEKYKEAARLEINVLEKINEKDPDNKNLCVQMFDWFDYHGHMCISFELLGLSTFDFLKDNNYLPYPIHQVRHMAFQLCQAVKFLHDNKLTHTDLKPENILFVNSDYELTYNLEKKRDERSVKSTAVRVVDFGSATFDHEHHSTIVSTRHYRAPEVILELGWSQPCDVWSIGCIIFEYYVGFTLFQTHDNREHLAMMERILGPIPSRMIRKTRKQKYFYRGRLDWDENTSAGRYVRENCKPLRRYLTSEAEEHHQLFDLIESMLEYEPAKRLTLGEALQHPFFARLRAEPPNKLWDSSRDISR

[35] = molecular target: Leucine-rich PPR motif-containing protein, mitochondrial (Homo sapiens) (UniProt P42704); further: assay method not described here
[36] = molecular target: G2/mitotic-specific cyclin-B1 (Homo sapiens) (UniProt P14635); further: assay method not described here
[37] = molecular target: Polyadenylate-binding protein 1 (Homo sapiens) (UniProt P11940); further: assay method not described here
[38] = molecular target: Mitogen-activated protein kinase kinase kinase 1 (Homo sapiens) (UniProt Q13233); further: assay method not described here
[39] = molecular target: Serine/threonine-protein kinase PAK 6 (Homo sapiens) (UniProt Q9NQU5); further: assay method not described here
[40] = molecular target: Protein FAM136A (Homo sapiens) (UniProt Q96C01); further: assay method not described here
Chain of Protein FAM136A (Homo sapiens) (Q96C01 whole entry): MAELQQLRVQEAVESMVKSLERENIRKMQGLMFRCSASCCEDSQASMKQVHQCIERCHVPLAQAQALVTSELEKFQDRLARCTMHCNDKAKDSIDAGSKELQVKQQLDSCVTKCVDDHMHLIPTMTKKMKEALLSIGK

[41] = molecular target: Heterogeneous nuclear ribonucleoprotein U-like protein 2 (Homo sapiens) (UniProt Q1KMD3); further: assay method not described here
[42] = molecular target: Actin-related protein 2/3 complex subunit 3 (Homo sapiens) (UniProt O15145); further: assay method not described here
[43] = molecular target: Putative heat shock protein HSP 90-beta 2 (Homo sapiens) (UniProt Q58FF8); further: assay method not described here
[44] = molecular target: Programmed cell death protein 6 (Homo sapiens) (UniProt O75340); further: assay method not described here
[45] = molecular target: Ezrin (Homo sapiens) (UniProt P15311); further: assay method not described here
[46] = molecular target: Tyrosine-protein kinase FRK (Homo sapiens) (UniProt P42685); further: assay method not described here

Chain of Tyrosine-protein kinase BTK (Homo sapiens) (Q06187 whole entry): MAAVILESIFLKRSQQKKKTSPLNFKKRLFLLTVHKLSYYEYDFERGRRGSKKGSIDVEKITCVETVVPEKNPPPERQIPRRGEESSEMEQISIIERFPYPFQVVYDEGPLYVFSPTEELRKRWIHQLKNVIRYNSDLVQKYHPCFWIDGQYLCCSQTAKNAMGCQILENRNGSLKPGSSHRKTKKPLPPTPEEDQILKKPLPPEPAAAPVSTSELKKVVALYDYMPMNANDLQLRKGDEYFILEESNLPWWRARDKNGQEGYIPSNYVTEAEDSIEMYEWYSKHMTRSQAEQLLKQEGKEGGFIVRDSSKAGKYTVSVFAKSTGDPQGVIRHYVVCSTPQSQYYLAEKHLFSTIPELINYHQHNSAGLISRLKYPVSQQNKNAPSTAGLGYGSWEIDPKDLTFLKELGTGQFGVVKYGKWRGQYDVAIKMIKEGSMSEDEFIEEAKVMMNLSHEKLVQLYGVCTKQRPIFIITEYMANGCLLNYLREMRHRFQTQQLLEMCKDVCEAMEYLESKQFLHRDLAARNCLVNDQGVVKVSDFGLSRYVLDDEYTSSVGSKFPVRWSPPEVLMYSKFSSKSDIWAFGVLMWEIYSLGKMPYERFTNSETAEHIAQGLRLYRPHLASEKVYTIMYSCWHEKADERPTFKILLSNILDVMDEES

Cc1ccc(C(=O)Nc2cccc(C(F)(F)F)c2)cc1Nc1nc(-c2cccnc2)nc2nn(C)cc12
ED50 [1]: 0.255 µM | ED50 [2]: 28 µM | ED50 [3]: 5.75 µM | ED50 [4]: 0.0717 µM | ED50 [5]: 2.75 µM | ED50 [6]: 0.343 µM | ED50 [7]: 0.0871 µM | ED50 [8]: 0.0167 µM | ED50 [9]: 5.23 µM | ED50 [10]: 0.00201 µM | ED50 [11]: 0.809 µM | ED50 [12]: 9.4 µM | ED50 [13]: 7.41 µM | ED50 [14]: 0.631 µM | ED50 [15]: 0.0077 µM | ED50 [16]: 0.083 µM | ED50 [17]: 0.303 µM | ED50 [18]: 0.00129 µM | ED50 [19]: 0.0714 µM | ED50 [20]: 0.0203 µM | ED50 [21]: 10.3 µM | ED50 [22]: 0.515 µM | ED50 [23]: 10.8 µM | ED50 [24]: 0.0889 µM | ED50 [25]: 0.0135 µM | ED50 [26]: 5.19 µM | IC50 [27]: ~10 µM | ED50 [28]: 0.68 µM | ED50 [29]: 35 µM | ED50 [30]: 0.0555 µM | ED50 [31]: 0.0591 µM | ED50 [32]: 0.0189 µM | ED50 [33]: 0.0567 µM | ED50 [34]: 6.69 µM | ED50 [35]: 3.28 µM | ED50 [36]: 5.61 µM | ED50 [37]: 10.7 µM | ED50 [38]: 3.34 µM | ED50 [39]: 0.526 µM | ED50 [40]: 4.63 µM | ED50 [41]: 0.175 µM | ED50 [42]: 0.0666 µM | ED50 [43]: 0.573 µM | ED50 [44]: 1.04 µM | ED50 [45]: 0.0827 µM | ED50 [46]: 8.67 µM

Cc1ccc(C(=O)Nc2cccc(C(F)(F)F)c2)cc1Nc1nc(-c2cccnc2)nc2c1cnn2C
ED50 [1]: 0.0298 µM | ED50 [2]: 13.9 µM | ED50 [3]: 5.02 µM | ED50 [4]: 0.0339 µM | ED50 [5]: 0.164 µM | ED50 [6]: 11.1 µM | ED50 [7]: 10.3 µM | ED50 [8]: 7.24 µM | ED50 [9]: 1.27 µM | ED50 [10]: 0.151 µM | ED50 [11]: 1.54 µM | ED50 [12]: 0.536 µM | ED50 [13]: 2.64 µM | ED50 [14]: 49.3 µM | ED50 [15]: 0.00467 µM | ED50 [16]: 7.11 µM | ED50 [17]: 26.2 µM | ED50 [18]: 0.934 µM | ED50 [19]: 2.5 µM | ED50 [20]: 0.0688 µM | ED50 [21]: 3.43 µM | ED50 [22]: 0.0296 µM | ED50 [23]: 90.6 µM | ED50 [24]: 0.109 µM | ED50 [25]: 7.09 µM | ED50 [26]: 62.9 µM | IC50 [27]: 0.0076 µM | ED50 [28]: 0.00449 µM | ED50 [29]: 0.0302 µM | ED50 [30]: 22 µM | ED50 [31]: 13.2 µM | ED50 [32]: 0.0297 µM | ED50 [33]: 0.0358 µM | ED50 [34]: 117 µM | ED50 [35]: 0.112 µM | ED50 [36]: 0.205 µM | ED50 [37]: 3.36 µM | ED50 [38]: 6.12 µM | ED50 [39]: 0.146 µM | ED50 [40]: 0.043 µM | ED50 [41]: 32000 µM | ED50 [42]: 3.47 µM | ED50 [43]: 0.0112 µM | ED50 [44]: 1.36 µM | ED50 [45]: 7.29 µM | ED50 [46]: 2.16 µM
